Here are results for 96 compounds from ChEMBL document CHEMBL3507680, “University of Dundee, Gates Library screen for HepG2 cell viability”.

A short description of this series: Human HepG2 cell viability assay in 384 well format. The format is toxicity, cell-based. Details: dose 125 nL, time 70.5 hour; concentration not given beside the values. Particulars: HepG2 cells, read-out: Inhibition.
For `COc1nonc1NCn1nc(C)cc1C`, the cytotoxicity at 70.5 h turned out to be 51.2%.
For `Cc1c(CN2CCCCC2)c(O)n(CCCO)c(=O)c1C#N` the value was -4.27%; for `COCCN(CCOC)Cc1c(C)nc2ccccc2c1O`, 5.31%.
For the compound `COCC(=O)N1CCN(S(=O)(=O)c2ccccc2)[C@@H](C(=O)OC)C1`, the cytotoxicity at 70.5 h was -5.08%.
For `NC(=O)CN1C(=O)CO[C@H]2CN(Cc3ccccc3)C[C@H]21` the value was -0.937%.
Under `CN1CCC(N2CCOC[C@H]2c2nc(C(C)(C)C)c[nH]2)CC1` stands 0.765%.
`O[C@@H]1C[C@@H](c2nc(-c3ccccc3)no2)N(Cc2ccncc2)C1`: the cytotoxicity at 70.5 h is -1.52%.
Under `CC1=C[C@@H](CN2CCN(C)CC2)[C@H](C(C)C)C[C@H]1Cc1nnc(C)o1` stands -9.92%.
Turning to `CN(C)Cc1cc(CC2(NCc3ccc(C#N)cc3)COC2)no1`, the cytotoxicity at 70.5 h is -6.01%.
Under `CCNC(=O)N1C[C@@H]2OCC(=O)N(C)[C@@H]2C1` stands 7.93%; under `CC(C)(C)c1c[nH]c([C@@H]2COCCN2C2CCNCC2)n1`, -0.308%; under `OCCc1cc(CC2(NCc3ccc(C(F)(F)F)cc3)COC2)no1`, -6.19%.
As for `CCN(CC)CC[C@H]1CN(C(=O)c2ccc(F)cc2)CC[C@H]1CC(=O)O`, the cytotoxicity at 70.5 h was -2.08%.
Under `CC(C)NC(=O)[C@@H]1Cc2[nH]cnc2CN1CCCc1ccccc1` stands 6.69%.
For `CC1(C)[C@H](Cc2cc(CN3CCCCC3)on2)C[C@@H]1NS(C)(=O)=O` the value was -4.26%; for `O=C(Cc1ccccc1)NC[C@H]1Cn2ccnc2CO1`, 5.13%.
Under `COc1ccc2c(c1)nc1n2[C@@H](CN(C2CCC2)C2CCC2)COC1` stands 1.4%; under `O[C@@H]1C[C@@H](c2nc(-c3cccnc3)no2)N(C2CCOCC2)C1`, 16.4%.
For `CCNC(=O)N1C[C@@H]2OCC(=O)N(CC3CC3)[C@@H]2C1`, the cytotoxicity at 70.5 h was -3.79%.
Under `CS(=O)(=O)Nc1ccc([C@H]2OCC(=O)N[C@@H]2CO)cc1` stands 2.21%.
For `O=C(NC[C@H]1OC[C@@H](NC2CCC(F)(F)CC2)[C@@H]1O)C1CC1` the value was -7.04%.
`COc1ccc(CN[C@@H]2CO[C@H](CNC(=O)NC(C)C)[C@H]2O)cc1`: the cytotoxicity at 70.5 h is -5.02%.
For `CC(C)NC(=O)NC[C@H]1OC[C@@H](NCc2ccccc2O)[C@@H]1O` the value was -2.12%; for `CC(C)NC(=O)NC[C@H]1OC[C@@H](NCc2cccs2)[C@@H]1O`, 9.03%.
Under `COc1ccc(S(=O)(=O)N2CCOC[C@H](Oc3cnccn3)C2)cc1` stands -0.146%; under `Cc1cc(C(=O)N2CCOC[C@H](Oc3cnccn3)C2)c(C(F)(F)F)o1`, 2.77%; under `CC(=O)N1CCC(NC2(Cc3cc(C(C)(C)O)on3)COC2)CC1`, -7.16%.
Under `O=C(c1ccccn1)N1C[C@@H]2OCC(=O)N(CC3CCCCC3)[C@@H]2C1` stands -6.75%; under `CC(C)(C)c1coc([C@@H]2COCCN2Cc2cnc3ccccc3c2)n1`, 0.0852%; under `COCCN1CCN(C(=O)C[C@@H]2C[C@@H](C(C)C)[C@H](CC#N)C=C2C)CC1`, 1.71%.
Turning to `COC(=O)c1cccc2nc([C@H]3CCN(Cc4ccccc4C)C3)oc12`, the cytotoxicity at 70.5 h is -14.2%.
For `FC(F)(F)c1ccc2nc([C@H]3CCN(C4CCCCC4)C3)[nH]c2c1` the value was 5.15%.
Under `CCN(CC)C1(Cc2cc(COC)on2)COC1` stands -0.489%.
As to `CS(=O)(=O)N1C[C@@H]2OCC(=O)N(CC3CC3)[C@@H]2C1`, the cytotoxicity at 70.5 h was -7.03%.
For `O=C(c1cnccn1)N1C[C@@H]2OCC(=O)N(CC3CCCCC3)[C@@H]2C1` the value was -0.096%; for `O=C1N(Cc2cccnc2)C[C@H]2CN(C3CCOCC3)CCN12`, -0.196%; for `O=C(NC[C@H]1OC[C@@H](NC2CCC(F)(F)CC2)[C@@H]1O)c1cccs1`, -5.94%.
Under `c1cncc(O[C@H]2COCCN(Cc3c[nH]c4ccccc34)C2)c1` stands 4.1%.
As to `O=C1N[C@@H]2CCN(C(=O)C3CCCC3)[C@@H]2C(=O)N1c1ccc(F)cc1`, the cytotoxicity at 70.5 h was -2.52%.
For `Cn1cncc1-c1nnc([C@H]2CCN(Cc3ccc(F)c(F)c3)C2)o1` the value was -0.644%.
For `Cn1cc(CN2C[C@@H](F)[C@@H](OCc3nc4cnccc4[nH]3)C2)cn1` the value was -1.11%.
Under `NC(=O)c1cccc2nc([C@H]3CCN(Cc4ccccn4)C3)[nH]c12` stands -0.598%.
For `FC(F)(F)c1ccc2nc([C@H]3CCN(C4CCC4)C3)[nH]c2c1`, the cytotoxicity at 70.5 h was -7.81%.
Under `O=C(NC[C@H]1OC[C@@H](NCc2ccc(F)cc2)[C@@H]1O)N1CCOCC1` stands -8.58%; under `CC(=O)N1CCC(NC[C@H]2Cn3c(-c4ccccc4)cnc3CO2)CC1`, -5.76%; under `COC(=O)[C@@H]1Cc2ncn(C)c2CN1S(=O)(=O)Cc1ccccc1`, -2.85%.
For `O=C1CO[C@H](c2ccc(NS(=O)(=O)c3ccccc3)cc2)[C@@H](CO)N1`, the cytotoxicity at 70.5 h is 11.6%.
For `CCCNC(=O)C[C@@H]1CCN(C(=O)c2cccnc2)C[C@@H]1CC`, the cytotoxicity at 70.5 h turned out to be 12.5%.
Under `COCC(=O)N1CCN(C(=O)C2CCCCC2)[C@@H](C(=O)OC)C1` stands 1.64%; under `COCCNC(=O)[C@H]1CN2CCC1C[C@@H]2Cn1cc(C(C)(C)C)nn1` (stereo partly specified), -0.883%; under `CNCc1cn(C[C@H]2C[C@@H]3CCN2C[C@@H]3C(=O)NC2CCCCC2)nn1`, -5.79%.
Under `COCc1cn(C[C@H]2C[C@@H]3CCN2C[C@@H]3C(=O)N2CCOCC2)nn1` stands -3.96%.
Under `Cn1cc(N)c(-c2nnc3n2CCCC3)n1` stands -0.222%; under `CC(C)c1cc(COCCCC(=O)O)no1`, -2.63%; under `CCCn1cc2c(C(F)F)cc(SCC(=O)O)nc2n1`, -8.88%.
Take `Cn1nccc1CNC(=O)Cn1nc(C(F)(F)F)cc1C1CC1`: the cytotoxicity at 70.5 h was -10.5%.
For `CC1=C(C#N)C(=O)NC(=O)/C1=C\c1c(C)nn(-c2ccccc2)c1O` the value was -2.78%; for `Cc1c(Br)cc2c(c1C)OCC(N(C)C)C2=O` (stereo unspecified), 19.9%.
Under `CCN(CC)C1COc2c(cc(Br)c(C)c2C)C1=O` (stereo unspecified) stands -6.45%; under `COc1ccc(N(c2ccc(OC)cc2)c2ccc(C(=O)O)s2)cc1`, -3.85%; under `COc1ccc(-c2nonc2N)cc1`, -0.886%.
As for `O=C1NC(=O)c2c3c(nc(O)c21)CCCC3`, the cytotoxicity at 70.5 h worked out at 0.775%.
Under `CCn1nccc1C(=O)NC(Cn1cccn1)C(C)(C)C` (stereo unspecified) stands 2.9%; under `O=C1CCC(=O)N1c1nn(Cc2ccc(F)cc2)cc1Cl`, 18.7%.
Consider `CNCc1cc(F)ccc1Oc1ccc(F)cc1F`, for which the cytotoxicity at 70.5 h is -0.802%.
For `CCn1cc(-c2cc(C(F)F)n3nc(CC(=O)O)nc3n2)cn1` the value was 0.375%.
Under `NC(=O)CSc1nccc(-c2ccc3c(c2)OCO3)n1` stands -2.27%; under `NC1C=C(C(F)(F)F)NC=C1c1ccc(Cl)cc1` (stereo unspecified), 3.46%.
Under `Cn1cc(-c2cc(C(F)F)n3nc(CCC(=O)O)nc3n2)cn1` stands -4.35%.
`Cc1cn(Cc2ccccc2)nc1N`: the cytotoxicity at 70.5 h came to 2.81%.
Under `Cc1cccc(Cn2cc(C)c(N)n2)c1` stands -1.64%.
For `CS(=O)(=O)N1CCCC(C(=O)Nc2cnn(Cc3ccc(F)cc3)c2)C1` (stereo unspecified) the value was 0.36%; for `CS(=O)(=O)N1CCCC(C(=O)Nc2cnn(COCC(F)(F)F)c2)C1` (stereo unspecified), 3.12%.
For `O=C1CCC(=O)N1c1nn(Cc2ccccc2)cc1Cl` the value was 20.6%.
Take `O=C1CCC(=O)N1c1nn(Cc2ccccc2Cl)cc1Cl`: the cytotoxicity at 70.5 h was -0.484%.
Under `CCc1nc(C)cn1C(=O)Nc1ccc(C)cc1` stands -1.55%; under `O=C(O)c1cc(-c2cccs2)nc2c(Br)cnn12`, 3.58%.
Consider `Cn1c(=O)c2cc(C(=O)NCc3ccncc3)ccc2n(C)c1=O`, for which the cytotoxicity at 70.5 h amounted to 2.17%.
For `CCn1cc(-c2cc(C(F)(F)F)n(CCCN)n2)cn1` the value was 1.14%; for `COC(=O)c1ccc(CNCc2cn(C)nc2C)cc1`, 1.28%.
In the case of `Cc1nn(C)cc1CNCc1ccc(N(C)C)cc1`, the cytotoxicity at 70.5 h was 1.1%.
As to `CCOCCCNC(=O)Cc1cccs1`, the cytotoxicity at 70.5 h was -1.71%.
Under `Cc1cc(-n2cnnn2)n2ncnc2n1` stands 3.71%; under `N#Cc1cc2c(nc1SCc1cc(O)nc(O)n1)CCCCC2`, -1.03%.
For `Cc1nn(C)cc1-c1cc(C(F)(F)F)c2c(C)nn(CC(=O)O)c2n1` the value was 32%; for `COCc1c(C(=O)NC2CCCC2)nnn1-c1ccc(C)cc1`, 22.4%; for `Cc1ccc(NC(=O)C2=CN=S=N2)cc1`, 18.8%.
Under `CCCn1ncc2c(C(=O)Nc3cnn(CC)c3C)cc(C3CC3)nc21` stands 5.37%; under `CCn1ncc(NC(=O)c2cc(C3CC3)nc3c2c(C)nn3C)c1C`, 35.5%.
Consider `CNC(=O)c1cccc(C2CNCCN2C(C)=O)c1` (stereo unspecified), for which the cytotoxicity at 70.5 h worked out at 14.8%.
`COc1ccc(-c2nccnc2C2CCN(C(C)=O)CC2)cc1`: the cytotoxicity at 70.5 h came to 19.6%.
As for `CNC(=O)[C@@H](c1ccccc1F)N1CCC[C@H]1C(=O)NC1CCOCC1`, the cytotoxicity at 70.5 h is -12.5%.
Under `CCNC(=O)[C@@H]1CCCN1C1(C(=O)NC)CCC1` stands -5.11%; under `CNC(=O)[C@@H](C1CC1)N1CCC[C@H]1C(=O)NCC(C)C`, -7.95%.
For the compound `CNC(=O)[C@@H](c1ccccc1OC)N1CCC[C@H]1C(=O)N1CCC1`, the cytotoxicity at 70.5 h is -5.76%.
Under `CNC(=O)C(C)(C)N1CCC[C@H]1C(=O)NCCN1CCCC1` stands 5.17%.
